From patent US20150087673A1, “METHODS FOR USING AND BIOMARKERS FOR AMPK-ACTIVATING COMPOUNDS” (RIGEL PHARMACEUTICALS, INC., priority 2013, published 2015) come the findings set out here.

The test system of one series is AMPK. The experiment in a line: AMPK activation assay (enzyme-linked immunosorbent assay). The series is classed as cell-based. An outline of the steps: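 Kit-based immunoassay; compounds screened as activators; standard reagents and protocol.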
A further series relates to db/db mice. The series can be described thus: [U-13C]-palmitate tracer analysis (13CO2/12CO2 enrichment) in db/db mice. Format: in vivo, mouse. The text has this: The elevated levels of BHBA detected by the global metabolite profiling are an indirect indicator of an increase in lipid oxidation. […] Appearance of ^13CO2 occurs via β-oxidation of the labeled palmitate to release ^13C-acetyl CoA, which must pass through one round of the TCA cycle before the labeled carbon can be given off as ^13CO2. An increased β-oxidation rate will result in a corresponding increase in ^13CO2 enrichment. In agreement with the elevation in relative BHBA levels detected in liver, adipose, and skeletal muscle tissues, an increase in ^13CO2 enrichment is observed for compound 309 treatment across all three tissues at both 60 and 120 minutes after palmitate administration. Ratios of ^13CO2 to ^12CO2 were higher for all treatment groups, including the vehicle, at 120 minutes compared to 60 minutes after palmitate feeding (FIG. 2). This time-dependent elevation was due to the slow absorption kinetics of the orally administered tracer suspension.
Male db/db mice (8 weeks) were orally gavaged once daily with vehicle, 5 mg/kg compound 309, or 10 mg/kg compound 309. Thirty minutes after dosing at day 8, 0.5 mg/kg of the metabolic tracer was administered, either via intraperitoneal injection for [U-^13C]-glucose or oral gavage for [U-^13C]-palmitate, followed by collection of liver, muscle, adipose tissue, and plasma at the timepoints indicated in the figure legends. Frozen samples were sent to SiDMAP, LLC (Los Angeles, Calif.) for isotope tracer analysis [Boros L G, Huang D, Heaney A P (2012) Fructose Drives Glucose via Direct Oxidation and Promotes Palmitate/Oleate Co-Release from Hepg2 Cells: Relevance with the Randle Cycle. […]
The elevated levels of BHBA detected by the global metabolite profiling are an indirect indicator that compound 309 treatment increases lipid oxidation. […] In agreement with the elevation in relative BHBA levels detected in liver, adipose, and skeletal muscle tissues, an increase in ^13CO2 enrichment is observed for compound 309 treatment across all three tissues at both 60 and 120 minutes after palmitate administration. […]

Series [1] is described as follows: Compound plasma levels after oral dosing. Format: in vivo, mouse. Here is the method:
Metabolite profiling of tissues from db/db mice orally dosed with either vehicle or 10 mg/kg compound 309 was used to characterize in detail the effects of the present AMPK activators on nutrient pathways in a commonly used mouse model of type 2 diabetes. […] Since AMPK activation results in both acute and chronic changes to metabolic pathways, samples from non-fasted mice treated for three days with compound 309 were analyzed. Samples were collected thirty minutes after compound dosing when compound 309 plasma levels as well as tissue AMPK activation were maximal.

The subject of another series is glucose uptake. The series can be described thus: Glucose uptake in vitro. The series is classed as cell-based.

`COc1ccc(C(=O)C2CCN(C(=O)c3ccc(C(=O)NC4CCN(Cc5ccc(C#N)cc5)CC4)cn3)CC2)cc1` [Compound 309, N-(1-(4-cyanobenzyl)piperidin-4-yl)-6-(4-(4-methoxybenzoyl)piperidine-1-carbonyl)nicotinamide]: in the series with AMPK, the EC50 is below 500 nM. For the same molecule, the “13CO2 enrichment after [U-13C]-palmitate” value in the series with db/db mice (liver, adipose and skeletal muscle, 60 and 120 minutes after palmitate administration, treated one week) was “increase”. For the same molecule, the fatty acid oxidation result in the series with db/db mice (liver, skeletal muscle and adipose tissue, chronic treatment of db/db mice) is recorded as “directly upregulated”. Also, the “dose-dependence of 13CO2 enrichment after [U-13C]-palmitate” value with db/db mice (skeletal muscle, 5 and 10 mg/kg) was “no dose-dependence”. The “time after compound dosing when plasma levels were maximal” value in series [1] was “thirty”. The glucose uptake result with glucose uptake was “robust enhancement”.

As usually defined, the EC50 is the concentration needed to bring the measured effect to its halfway point. High values mean weaker potency, low ones greater potency.
